Results: patent publication US9796700B2 (Celgene CAR LLC, priority 2013, dated 2017)

What was measured:
[1] = molecular target: Erk1 (Homo sapiens (Human), UniProt P27361); test: Protein Mass Modification Assay (intact protein MALDI); assay type: binding
Method in brief: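 Human Erk1 was incubated 60 min at room temperature with a 10-fold molar excess of compound, then analysed as intact protein by MALDI with sinapinic acid matrix. The centroid mass shift versus untreated protein was divided by compound molecular weight to give percent modified protein.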

[2] = molecular target: MEK1 activated ERK1 (Homo sapiens (Human), UniProt P27361); test: Omnia continuous-read kinase assay for potency against MEK1 activated ERK1; assay type: biochemical; settings: MEK1 activated ERK1, WT, ATP at KM
Excerpt: Omnia Assay Protocol for Potency Assessment Against MEK1 Activated ERK1:
The protocol below describes continuous-read kinase assays to measure potency of compounds against activated ERK1 enzyme. The mechanics of the assay platform are best described by the vendor (Invitrogen, Carlsbad, Calif.) on their website at the following URL: invitrogen.com/site/us/en/home.html.
Briefly, a 1.25× stock of ERK1 enzyme (14-439-K) from Millipore (Billerica, Mass.), 5×ATP (AS001A) and ST17-Sox conjugated peptide substrate (KNZ1171C) were prepared in 1× kinase reaction buffer consisting of 20 mM Tris, pH 7.5, 5 mM MgCl2, 1 mM EGTA, 5 mM β-glycerophosphate, 5% glycerol (10× stock, KB002A) and 0.2 mM DTT. 10 μL of ATP/ST17-sox peptide substrate mix was combined with 0.5 μL volume of 100% DMSO and serially diluted compounds were prepared in 100% DMSO in a Corning (#3574) 384-well, white, non-binding surface microtiter plate (Corning, N.Y.). Kinase reactions were started with the addition of 40 μL of ERK1 solution and monitored every 71 seconds for 30-240 minutes at λex360/λem485 in a Synergy plate reader from BioTek (Winooski, Vt.). At the conclusion of each assay, progress curves from each well were examined for linear reaction kinetics and fit statistics (R^2, 95% confidence interval, absolute sum of squares). Initial velocity (0 minutes to ˜30+ minutes) from each reaction was determined from the slope of a plot of relative fluorescence units vs time (minutes or seconds) and then plotted against inhibitor concentration to estimate ^AppIC50 from log [Inhibitor] vs Response, Variable Slope model in GraphPad Prism from GraphPad Software (San Diego, Calif.).
[Reagent] used in optimized protocol:
[ERK1]=4 nM, [ATP]=50 μM, [ST17-Sox]=10 μM (ATP ^appKM 48 μM)
The results of this assay show the degree of inhibition of ERK activity, which is a direct measurement of inhibition of ERK activity. Results from this assay are reported in Table A under the column “ERK1 Omnia WT ATP KM IC50 (nM).”

Sequence of MEK1 activated ERK1 (P27361 whole entry): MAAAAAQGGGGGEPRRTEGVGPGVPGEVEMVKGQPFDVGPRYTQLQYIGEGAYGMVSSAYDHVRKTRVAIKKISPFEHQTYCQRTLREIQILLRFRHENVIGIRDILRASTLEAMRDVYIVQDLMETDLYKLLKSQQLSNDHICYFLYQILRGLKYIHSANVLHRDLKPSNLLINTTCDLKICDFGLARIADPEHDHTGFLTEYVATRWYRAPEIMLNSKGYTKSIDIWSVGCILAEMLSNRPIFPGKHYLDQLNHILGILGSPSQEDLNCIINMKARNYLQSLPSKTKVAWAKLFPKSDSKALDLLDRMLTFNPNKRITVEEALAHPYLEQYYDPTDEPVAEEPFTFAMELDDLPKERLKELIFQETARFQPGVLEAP
Sequence of Erk1 (P27361 whole entry, looked up): as the sequence (P27361 whole entry) above

| Compound | ERK1 Mass Mod (%) [1] | IC50 [2] |
| --- | --- | --- |
| CC#CC(=O)N[C@@H]1CCCC[C@H]1Nc1nc(N[C@H]2CCCN(C(=O)CO)C2)ncc1C(F)(F)F [Compound I-33, N-((1R,2R)-2-((2-(((S)-1-(2-Hydroxyacetyl)piperidin-3-yl)amino)-5-(trifluoromethyl)pyrimidin-4-yl)amino)cyclohexyl)but-2-ynamide] | F (provided a mass modification of 31-69%) | > 1000 nM |
| C=CS(=O)(=O)N[C@@H]1CCCC[C@H]1Nc1nc(N[C@H]2CCCN(C(=O)CO)C2)ncc1C(F)(F)F [Compound I-36, N-((1R,2R)-2-((2-(((S)-1-(2-Hydroxyacetyl)piperidin-3-yl)amino)-5-(trifluoromethyl)pyrimidin-4-yl)amino)cyclohexyl)ethenesulfonamide] | E (provided a mass modification of ≧70%) | < 100 nM |
| C=CC(=O)Nc1ccc(C)cc1Nc1nc(N[C@H]2CCCN(C(=O)CO)C2)ncc1C(F)(F)F [Compound I-37, (S)—N-(2-((2-((1-(2-hydroxyacetyl)piperidin-3-yl)amino)-5-(trifluoromethyl)pyrimidin-4-yl)amino)-4-methylphenyl)acrylamide] | E (provided a mass modification of ≧70%) | < 100 nM |
| C=CC(=O)Nc1cc(C)ccc1Nc1nc(NC2CCC(=O)CC2)ncc1C(F)(F)F [Compound I-38, N-(5-Methyl-2-((2-((4-oxocyclohexyl)amino)-5-(trifluoromethyl)pyrimidin-4-yl)amino)phenyl)acrylamide] | E (provided a mass modification of ≧70%) | < 100 nM |
| C=CC(=O)Nc1cc(C)ccc1Nc1nc(N[C@H]2CCCN(C(=O)CN)C2)ncc1C(F)(F)F [Compound I-42, (S)—N-(2-((2-((1-(2-Aminoacetyl)piperidin-3-yl)amino)-5-(trifluoromethyl)pyrimidin-4-yl)amino)-5-methylphenyl)acrylamide] | E (provided a mass modification of ≧70%) | < 100 nM |
| C=CC(=O)Nc1cc(C)ccc1Nc1nc(N[C@H]2CCCN(C(=O)c3ccccc3)C2)ncc1C(F)(F)F [Compound I-44, (S)—N-(2-((2-((1-Benzoylpiperidin-3-yl)amino)-5-(trifluoromethyl)pyrimidin-4-yl)amino)-5-methylphenyl)acrylamide] | E (provided a mass modification of ≧70%) | > 1000 nM |
| C=CC(=O)Nc1ccccc1CNc1nc(N[C@H]2CCCN(C(=O)CO)C2)ncc1C(F)(F)F [Compound I-45, (S)—N-(2-(((2-((1-(2-Hydroxyacetyl)piperidin-3-yl)amino)-5-(trifluoromethyl)pyrimidin-4-yl)amino)methyl)phenyl)acrylamide] | G (proived a mass modification ≦30%) | > 1000 nM |
| C=C(C)S(=O)(=O)Nc1ccccc1Nc1nc(N[C@H]2CCCN(C(=O)CO)C2)ncc1C(F)(F)F [Compound I-46, (S)—N-(2-((2-((1-(2-Hydroxyacetyl)piperidin-3-yl)amino)-5-(trifluoromethyl)pyrimidin-4-yl)amino)phenyl)prop-1-ene-2-sulfonamide] | G (proived a mass modification ≦30%) | < 100 nM |
| C=C(C)S(=O)(=O)Nc1cc(C)ccc1Nc1nc(N[C@H]2CCCN(C(=O)CO)C2)ncc1C(F)(F)F [Compound I-47, (S)—N-(2-((2-((1-(2-Hydroxyacetyl)piperidin-3-yl)amino)-5-(trifluoromethyl)pyrimidin-4-yl)amino)-5-methylphenyl)prop-1-ene-2-sulfonamide] | G (proived a mass modification ≦30%) | < 100 nM |
| C=C(C)S(=O)(=O)Nc1cc(C)ccc1Nc1nc(NC2CCC(=O)CC2)ncc1C(F)(F)F [Compound I-53, N-(5-Methyl-2-((2-((4-oxocyclohexyl)amino)-5-(trifluoromethyl)pyrimidin-4-yl)amino)phenyl)prop-1-ene-2-sulfonamide] | G (proived a mass modification ≦30%) | < 100 nM |
| C=C(C)S(=O)(=O)Nc1cc(F)ccc1Nc1nc(N[C@H]2CCCN(C(=O)CO)C2)ncc1C(F)(F)F [Compound I-54, (S)—N-(5-Fluoro-2-((2-((1-(2-hydroxyacetyl)piperidin-3-yl)amino)-5-(trifluoromethyl)pyrimidin-4-yl)amino)phenyl)prop-1-ene-2-sulfonamide] | G (proived a mass modification ≦30%) | < 100 nM |
| C=C(F)C(=O)Nc1ccccc1Nc1nc(N[C@H]2CCCN(C(C)=O)C2)ncc1C(F)(F)F [Compound I-55, (S)—N-(2-((2-((1-Acetylpiperidin-3-yl)amino)-5-(trifluoromethyl)pyrimidin-4-yl)amino)phenyl)-2-fluoroacrylamide] | E (provided a mass modification of ≧70%) | < 100 nM |
| C=CC(=O)Nc1ccccc1Nc1nc(N[C@@H]2CCN(C(=O)OC)C2)ncc1C(F)(F)F [Compound I-61, (R)-Methyl 3-((4-((2-Acrylamidophenyl)amino)-5-(trifluoromethyl)pyrimidin-2-yl)amino)pyrrolidine-1-carboxylate] | E (provided a mass modification of ≧70%) | > 1000 nM |
| C=CC(=O)Nc1ccccc1Nc1nc(N[C@@H]2CCN(C(=O)CO)C2)ncc1C(F)(F)F [Compound I-62, (R)—N-(2-((2-((1-(2-Hydroxyacetyl)pyrrolidin-3-yl)amino)-5-(trifluoromethyl)pyrimidin-4-yl)amino)phenyl)acrylamide] | F (provided a mass modification of 31-69%) | > 1000 nM |
| C=CC(=O)Nc1cc(OC)ccc1Nc1nc(N[C@H]2CCCN(C(=O)CO)C2)ncc1C(F)(F)F [Compound I-64, (S)—N-(2-((2-((1-(2-Hydroxyacetyl)piperidin-3-yl)amino)-5-(trifluoromethyl)pyrimidin-4-yl)amino)-5-methoxyphenyl)acrylamide] | E (provided a mass modification of ≧70%) | < 100 nM |
| C=CC(=O)Nc1ccccc1Nc1nc(Nc2cc(C(=O)NOC)ccc2C)ncc1C(F)(F)F [Compound I-69, 3-((4-((2-Acrylamidophenyl)amino)-5-(trifluoromethyl)pyrimidin-2-yl)amino)-N-methoxy-4-methylbenzamide] | E (provided a mass modification of ≧70%) | < 100 nM |
| C=CC(=O)Nc1ccccc1Nc1nc(Nc2cc(C(N)=O)ccc2OC)ncc1C(F)(F)F [Compound I-70, 3-((4-((2-Acrylamidophenyl)amino)-5-(trifluoromethyl)pyrimidin-2-yl)amino)-4-methoxybenzamide] | E (provided a mass modification of ≧70%) | < 100 nM |
| C=CC(=O)Nc1ccccc1Nc1nc(Nc2cc(C(N)=O)ccc2C#N)ncc1C(F)(F)F [Compound I-71, 3-((4-((2-Acrylamidophenyl)amino)-5-(trifluoromethyl)pyrimidin-2-yl)amino)-4-cyanobenzamide] | E (provided a mass modification of ≧70%) | < 100 nM |
| C=CC(=O)Nc1cc(OC)ccc1Nc1nc(Nc2cc(OC)nc(N3CCN(CC)CC3)c2)ncc1C(F)(F)F [Compound I-88, N-(2-((2-((2-(4-Ethylpiperazin-1-yl)-6-methoxypyridin-4-yl)amino)-5-(trifluoromethyl)pyrimidin-4-yl)amino)-5-methoxyphenyl)acrylamide] | E (provided a mass modification of ≧70%) | < 100 nM |
| C=CC(=O)Nc1cc(C)ccc1Nc1nc(Nc2cc(OC)ncc2C)ncc1C(F)(F)F [Compound I-90, N-(2-((2-((2-Methoxy-5-methylpyridin-4-yl)amino)-5-(trifluoromethyl)pyrimidin-4-yl)amino)-5-methylphenyl)acrylamide] | E (provided a mass modification of ≧70%) | < 100 nM |
| C=CC(=O)Nc1cc(OC)ccc1Nc1nc(Nc2cc(OC)nc(N3CCN(C(C)=O)CC3)c2)ncc1C(F)(F)F [Compound I-91, N-(2-((2-((2-(4-Acetylpiperazin-1-yl)-6-methoxypyridin-4-yl)amino)-5-(trifluoromethyl)pyrimidin-4-yl)amino)-5-methoxyphenyl)acrylamide] | E (provided a mass modification of ≧70%) | < 100 nM |
| C=CC(=O)Nc1ccccc1Nc1nc(Nc2cc(OC)nc(OC)c2)ncc1C(F)(F)F [Compound I-95, N-(2-((2-((2,6-Dimethoxypyridin-4-yl)amino)-5-(trifluoromethyl)pyrimidin-4-yl)amino)phenyl)acrylamide] | E (provided a mass modification of ≧70%) | < 100 nM |
